Earlier results in publication PMC4435776 (Journal of cardiovascular translational research, 2014).

Test system: Mouse ESC
Conditions: compared with the effect of CsA; ref [56]

Row | Compound | effect on stem cells of other calcineurin/NFAT inhibitors
1 | 11R-VIVIT | absence of a significant effect
2 | C=CC[C@@H]1/C=C(\C)C[C@H](C)C[C@H](OC)[C@H]2O[C@@](O)(C(=O)C(=O)N3CCCC[C@H]3C(=O)O[C@H](/C(C)=C/[C@@H]3CC[C@@H](O)[C@H](OC)C3)[C@H](C)[C@@H](O)CC1=O)[C@H](C)C[C@@H]2OC [tacrolimus] | absence of a significant effect
